Among the test systems are SF-295; SW-620; SK-MEL-28; U-251; SF-268; OVCAR-8; MOLT-4; Malme-3M; HOP-62; UO-31; HOP-92; SF-539; SK-OV-3; HCT-116; HL-60; COLO 205; M14; IGROV-1; SN12C.
Common to all, as to assay: NCI anticancer screen, dose series, 48 h

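Each compound was tested at five concentrations against cells in 96-well plates for 48 hours. GI50 is the concentration that inhibits growth by half.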 Activity calls are given as the source filed them. Cut-off read from the data, not from the text of the source: active = GI50 up to about 1.1 µM and inactive = higher. Where only a bound is given, the exact number is not on record here.

Take `Cc1ccc(NC(=O)c2cccc(OP(=O)(Nc3ccc(C)cc3)Nc3ccc(C)cc3)c2)cc1`: the GI50 in the test on SF-295 was 7.13 µM (inactive); in the test with SW-620 it was 8.18 µM (inactive); with SK-MEL-28, 29.9 µM (inactive); in the test with U-251 it was 6.58 µM (inactive); in the test with SF-268, 43.1 µM (inactive); in the test with OVCAR-8, 16 µM (inactive). The GI50 is 2.61 µM (inactive) with MOLT-4; 4.83 µM (inactive) in the test with Malme-3M; 28.7 µM (inactive) in the test on HOP-62; 4.53 µM (inactive) in the test on UO-31; 3.23 µM (inactive) in the test with HOP-92; 23.3 µM (inactive) in the test with SF-539. The GI50 is 24.9 µM (inactive) with SK-OV-3; 4.18 µM (inactive) in the test on HCT-116; 9.95 µM (inactive) with HL-60; 2.32 µM (inactive) in the test on COLO 205; 3.21 µM (inactive) in the test on M14; 15.1 µM (inactive) in the test on IGROV-1. Besides, in the test with SN12C, the GI50 was 16.3 µM (inactive).

Turning to `COc1ccc2cc(NC(=O)Nn3cnnc3)ccc2c1`, the GI50 in the test with SF-295, in the test on SW-620, in the test with SK-MEL-28, in the test with U-251, with SF-268 and in the test on OVCAR-8 was > 100 µM (inactive) throughout. Moreover, the GI50 with MOLT-4, in the test on Malme-3M, in the test with HOP-62, in the test on UO-31, in the test with HOP-92 and with SF-539 was > 100 µM (inactive) in each case. The GI50 with SK-OV-3, in the test with HCT-116, with HL-60, in the test on COLO 205, with M14 and in the test on IGROV-1 was > 100 µM (inactive) throughout.

In the case of `Cc1nnc2n(c1=O)CCN2C`, the GI50 with SF-295, in the test with SW-620, in the test on SK-MEL-28, with U-251, with SF-268 and with OVCAR-8 was > 100 µM (inactive) in each case. Moreover, the GI50 in the test on MOLT-4, in the test on Malme-3M, in the test on HOP-62, in the test with UO-31, with HOP-92 and in the test with SF-539 was > 100 µM (inactive) in each case. In addition, the GI50 in the test with SK-OV-3, in the test on HCT-116, in the test on HL-60, in the test on COLO 205, in the test on M14 and with IGROV-1 was > 100 µM (inactive) each time. In the test with SN12C, the GI50 was > 100 µM (inactive).

As to `O=C1/C(=C\c2cccc(Oc3ccccc3)c2)SC(c2ccccc2)N1c1ccccc1` (stereo unspecified), the GI50 with SF-295 is > 100 µM (inactive); with SW-620 it was 12.4 µM (inactive); with SK-MEL-28 it was 81.1 µM (inactive); in the test on U-251, 25.1 µM (inactive); in the test on SF-268, > 100 µM (inactive); with OVCAR-8 it was 42.2 µM (inactive). Moreover, the GI50 is 23.2 µM (inactive) in the test with MOLT-4; > 100 µM (inactive) with Malme-3M; > 100 µM (inactive) in the test on HOP-62; > 100 µM (inactive) in the test on UO-31; 60.7 µM (inactive) in the test with HOP-92; 26.5 µM (inactive) in the test with SF-539. Also, the GI50 in the test with SK-OV-3 was > 100 µM (inactive); with HCT-116 it was 20.1 µM (inactive); in the test with HL-60, 46.8 µM (inactive); with COLO 205 it was > 100 µM (inactive); in the test with M14, 71.6 µM (inactive); in the test on SN12C, > 100 µM (inactive).

For the compound `COC(OC)(c1ccccc1)C(I)I`, the GI50 is 22.8 µM (inactive) in the test on SF-295; 2.92 µM (inactive) in the test with SW-620; 16.1 µM (inactive) in the test on SK-MEL-28; 16.5 µM (inactive) in the test on U-251; 19.3 µM (inactive) with SF-268; 17.9 µM (inactive) in the test with OVCAR-8. The GI50 in the test on MOLT-4 was 2.38 µM (inactive); with Malme-3M it was 3.15 µM (inactive); in the test with HOP-62, 28.1 µM (inactive); in the test with UO-31, 16.3 µM (inactive); with HOP-92 it was 13.4 µM (inactive); in the test on SF-539, 12.7 µM (inactive). In addition, the GI50 is 12.1 µM (inactive) in the test on SK-OV-3; 4.91 µM (inactive) in the test on HCT-116; 2 µM (inactive) in the test on HL-60; 8.69 µM (inactive) in the test with COLO 205; 5.37 µM (inactive) with M14; 13.9 µM (inactive) with IGROV-1. For the same compound, in the test on SN12C, the GI50 is 20.1 µM (inactive).

`O=c1c2c3c(sc2nc2n1N=C(c1ccc(Cl)cc1)CS2)CCCC3`: the GI50 with SF-295, in the test with SW-620, in the test with SK-MEL-28, in the test on U-251, in the test on SF-268 and in the test with OVCAR-8 was > 100 µM (inactive) in each case. In addition, the GI50 with MOLT-4, in the test on Malme-3M, in the test with HOP-62, in the test on UO-31, in the test with HOP-92 and in the test on SF-539 was > 100 µM (inactive) throughout. Also, the GI50 in the test on SK-OV-3, with HCT-116, in the test with HL-60, with COLO 205, in the test on IGROV-1 and with SN12C was > 100 µM (inactive) each time.

In the case of `O=C1/C(=C/c2ccc(Cl)cc2)CSc2ccccc21`, the GI50 in the test with SW-620 was 3.71 µM (inactive); in the test with SK-MEL-28, 23.1 µM (inactive); in the test on U-251 it was 5.87 µM (inactive); in the test on SF-268, 22.5 µM (inactive); in the test with OVCAR-8, 20.5 µM (inactive); in the test on MOLT-4, 5.55 µM (inactive). Further, the GI50 with Malme-3M is 25.5 µM (inactive); in the test on HOP-62, 20.5 µM (inactive); with UO-31, 17.6 µM (inactive); in the test with HOP-92, 33.6 µM (inactive); in the test on SF-539, 17.8 µM (inactive); in the test with SK-OV-3, 31.8 µM (inactive). For the same compound, the GI50 was 2.6 µM (inactive) in the test on HCT-116; 17.9 µM (inactive) with HL-60; 25.3 µM (inactive) with COLO 205; 31.8 µM (inactive) in the test with M14; 23.7 µM (inactive) in the test with IGROV-1; 17.2 µM (inactive) in the test on SN12C.

As to `Fc1ccc(/N=N/N2CCCC2)cc1`, the GI50 was 8.04 µM (inactive) in the test on SF-295; > 100 µM (inactive) in the test with SW-620; 94 µM (inactive) in the test on SK-MEL-28; > 100 µM (inactive) in the test on U-251; > 100 µM (inactive) in the test on SF-268; 32.1 µM (inactive) with MOLT-4. Besides, the GI50 was > 100 µM (inactive) in the test with Malme-3M; > 100 µM (inactive) in the test with HOP-62; 27 µM (inactive) with UO-31; > 100 µM (inactive) with HOP-92; > 100 µM (inactive) in the test on SF-539; > 100 µM (inactive) with SK-OV-3. Moreover, the GI50 in the test on HCT-116 was 85.7 µM (inactive); in the test on HL-60, 50.4 µM (inactive); with COLO 205, > 100 µM (inactive); with M14 it was > 100 µM (inactive); with IGROV-1 it was 82.4 µM (inactive); in the test with SN12C, 51.1 µM (inactive).

Turning to `CCCCCCNCCCNc1c2cc(OC)ccc2nc2cccc([N+](=O)[O-])c12`, the GI50 with SF-295 was 0.0865 µM (active); in the test with SW-620 it was < 0.0233 µM (active); in the test with SK-MEL-28, 0.208 µM (active); with U-251 it was 0.131 µM (active); in the test with SF-268, 0.0731 µM (active); with MOLT-4 it was 0.112 µM (active). The GI50 was 0.0304 µM (active) with Malme-3M; 0.0908 µM (active) in the test with HOP-62; 0.188 µM (active) with UO-31; 0.136 µM (active) in the test on HOP-92; 0.29 µM (active) in the test on SF-539; 0.627 µM (active) in the test on SK-OV-3. The GI50 was 0.036 µM (active) in the test with HCT-116; 0.214 µM (active) in the test on HL-60; 0.139 µM (active) in the test with COLO 205; 0.143 µM (active) with M14; 0.0119 µM (active) in the test on IGROV-1; 0.0787 µM (active) in the test on SN12C.

`CN(NC(=O)c1cccs1)C1=NCCN1`: the GI50 with SF-295, with SW-620, with SK-MEL-28, with U-251, in the test on SF-268 and in the test with OVCAR-8 was > 100 µM (inactive) in each case. Besides, the GI50 in the test with MOLT-4, in the test with Malme-3M, in the test with HOP-62, in the test with UO-31, with HOP-92 and in the test on SF-539 was > 100 µM (inactive) each time. Further, the GI50 with SK-OV-3, in the test with HCT-116, with HL-60, in the test on COLO 205, in the test on M14 and in the test on IGROV-1 was > 100 µM (inactive) throughout.

Turning to `O=c1c(Cl)c(Cl)c(=O)c2sc3cc(Cl)ccc3[nH]c1=2`, the GI50 with SF-295 was 70.8 µM (inactive); in the test on SW-620, 20.3 µM (inactive); in the test on SK-MEL-28, > 100 µM (inactive); in the test on U-251 it was 31.4 µM (inactive); with SF-268, 38.6 µM (inactive); in the test on OVCAR-8, 14.5 µM (inactive). Also, the GI50 in the test on MOLT-4 is 2.47 µM (inactive); in the test on Malme-3M, 40.1 µM (inactive); in the test with HOP-62, > 100 µM (inactive); in the test with UO-31, 18.2 µM (inactive); with HOP-92, 16.7 µM (inactive); in the test with SF-539, 43 µM (inactive). Further, the GI50 was > 100 µM (inactive) in the test with SK-OV-3; 33 µM (inactive) in the test on HCT-116; 7.73 µM (inactive) in the test on HL-60; 90.4 µM (inactive) with COLO 205; 40.5 µM (inactive) in the test with M14; 10.5 µM (inactive) in the test on IGROV-1.

Values taken from ChEMBL document CHEMBL1201862, “PubChem BioAssay data set” (2004).
